Experimental data taken from the supplement of paper PMC5908809.

Columns and labels:
[1] = test system: normal NK cells expanded with K562-aAPC; experiment: drug sensitivity score (DSS) (DSS units); higher = more sensitive; extreme values may be limits of the assay; conditions: 72 h; IL-2 2.5 ng/mL
Description: (§1)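 Drug sensitivity and resistance testing on K562-aAPC-expanded normal NK cells: 5 concentrations (10-fold steps over a 10,000-fold range), 72 h at 37 °C, viability by CellTiter-Glo normalised to DMSO and benzethonium chloride controls; DSS from the fitted curve.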

NK-YS (IL-2 2.5 ng/mL) [2] = experiment: as above; conditions: 72 h
[3] = test system: normal primary NK cells, pool 1 (3 donors), resting (IL-2 0 ng/mL); experiment: as above; conditions: 72 h
SNK-6 (IL-2 2.5 ng/mL) [4] = experiment: as above; conditions: 72 h
KHYG-1 (IL-2 2.5 ng/mL) [5] = experiment: as above; conditions: 72 h
IMC-1 (IL-2 20 ng/mL) [6] = experiment: as above; conditions: 72 h
YT (IL-2 2.5 ng/mL) [7] = experiment: as above; conditions: 72 h
[8] = test system: normal primary NK cells, pool 1 (3 donors) (IL-2 2.5 ng/mL); experiment: as above; conditions: 72 h
KAI3 (IL-2 2.5 ng/mL) [9] = experiment: as above; conditions: 72 h
NKL (IL-2 2.5 ng/mL) [10] = experiment: as above; conditions: 72 h
[11] = test system: normal primary NK cells, pool 3 (3 donors) (IL-2 2.5 ng/mL); experiment: as above; conditions: 72 h
DERL-7 (IL-2 2.5 ng/mL) [12] = experiment: as above; conditions: 72 h
NK-92 (IL-2 2.5 ng/mL) [13] = experiment: as above; conditions: 72 h
[14] = test system: normal primary NK cells, pool 2 (3 donors) (IL-2 2.5 ng/mL); experiment: as above; conditions: 72 h
NK-YS (IL-2 2.5 ng/mL) [15] = experiment: percent inhibition of viability; higher = more inhibition; conditions: 72 h
[16] = test system: normal primary NK cells, pool 1 (3 donors), resting (IL-2 0 ng/mL); experiment: as above; conditions: 72 h
SNK-6 (IL-2 2.5 ng/mL) [17] = experiment: as above; conditions: 72 h
KHYG-1 (IL-2 2.5 ng/mL) [18] = experiment: as above; conditions: 72 h
IMC-1 (IL-2 20 ng/mL) [19] = experiment: as above; conditions: 72 h
YT (IL-2 2.5 ng/mL) [20] = experiment: as above; conditions: 72 h
[21] = test system: normal primary NK cells, pool 1 (3 donors) (IL-2 2.5 ng/mL); experiment: as above; conditions: 72 h
KAI3 (IL-2 2.5 ng/mL) [22] = experiment: as above; conditions: 72 h
NKL (IL-2 2.5 ng/mL) [23] = experiment: as above; conditions: 72 h
[24] = test system: normal primary NK cells, pool 3 (3 donors) (IL-2 2.5 ng/mL); experiment: as above; conditions: 72 h
DERL-7 (IL-2 2.5 ng/mL) [25] = experiment: as above; conditions: 72 h
NK-92 (IL-2 2.5 ng/mL) [26] = experiment: as above; conditions: 72 h
[27] = test system: normal primary NK cells, pool 2 (3 donors) (IL-2 2.5 ng/mL); experiment: as above; conditions: 72 h
[28] = test system: normal NK cells expanded with K562-aAPC; experiment: as above; conditions: 72 h, IL-2 2.5 ng/mL
Description: as §1

CC1(C)CCC(c2ccc(Cl)cc2)=C(CN2CCN(c3ccc(C(=O)NS(=O)(=O)c4ccc(N[C@H](CCN5CCOCC5)CSc5ccccc5)c(S(=O)(=O)C(F)(F)F)c4)cc3)CC2)C1 [Navitoclax] (max concentration tested 10000 nM)
Conditions	drug sensitivity score
DERL-7 (IL-2 2.5 ng/mL) [12]	23
IMC-1 (IL-2 20 ng/mL) [6]	9.91
KAI3 (IL-2 2.5 ng/mL) [9]	42.1
KHYG-1 (IL-2 2.5 ng/mL) [5]	26.3
NK-92 (IL-2 2.5 ng/mL) [13]	18.6
NK-YS (IL-2 2.5 ng/mL) [2]	24.8
NKL (IL-2 2.5 ng/mL) [10]	29.4
SNK-6 (IL-2 2.5 ng/mL) [4]	39.8
YT (IL-2 2.5 ng/mL) [7]	26.4
[1]	11.7
[3]	36.1
[8]	25.1
[11]	19.2
[14]	24.6

percent inhibition of viability [%]
Conditions	1 nM	10 nM	100 nM	1000 nM	10000 nM
DERL-7 (IL-2 2.5 ng/mL) [25]	2	1.88	47.8	93	100
IMC-1 (IL-2 20 ng/mL) [19]	-6.88	-0.75	19.6	38.7	79.4
KAI3 (IL-2 2.5 ng/mL) [22]	19.6	80.7	102	104	97.4
KHYG-1 (IL-2 2.5 ng/mL) [18]	-3.19	-1.54	72.7	102	96.3
NK-92 (IL-2 2.5 ng/mL) [26]	-0.38	-1.7	27	83.7	95.2
NK-YS (IL-2 2.5 ng/mL) [15]	0.62	12	56.3	99.3	96.6
NKL (IL-2 2.5 ng/mL) [23]	-5.66	12.4	83.2	101	97.8
SNK-6 (IL-2 2.5 ng/mL) [17]	16.9	69.7	99	99.5	98.8
YT (IL-2 2.5 ng/mL) [20]	2.71	25.2	69.4	77.4	87.6
[16]	2.54	48	98.3	100	99.9
[21]	-16.8	-9.66	60	94	99.9
[24]	-14.4	-12.2	24.6	87.2	95.9
[27]	-16.4	3.46	56.9	95.9	99
[28]	-0.31	-4.48	10.3	55	77

CC(C)c1c(C(=O)Nc2ccccc2)c(-c2ccccc2)c(-c2ccc(F)cc2)n1CC[C@@H](O)C[C@@H](O)CC(=O)O [Atorvastatin] (max concentration tested 10000 nM)
Conditions	drug sensitivity score
DERL-7 (IL-2 2.5 ng/mL) [12]	4
IMC-1 (IL-2 20 ng/mL) [6]	9.38
KAI3 (IL-2 2.5 ng/mL) [9]	3.95
KHYG-1 (IL-2 2.5 ng/mL) [5]	5.76
NK-92 (IL-2 2.5 ng/mL) [13]	2.7
NK-YS (IL-2 2.5 ng/mL) [2]	14
NKL (IL-2 2.5 ng/mL) [10]	17.2
SNK-6 (IL-2 2.5 ng/mL) [4]	2.14
YT (IL-2 2.5 ng/mL) [7]	9
[1]	0.92
[3]	2.71
[8]	0.79
[11]	0
[14]	1.06

percent inhibition of viability [%]
Conditions	1 nM	10 nM	100 nM	1000 nM	10000 nM
DERL-7 (IL-2 2.5 ng/mL) [25]	-2.58	-0.16	-3.51	6.56	54.2
IMC-1 (IL-2 20 ng/mL) [19]	-2.01	0.19	4.44	25.6	99.2
KAI3 (IL-2 2.5 ng/mL) [22]	-7.62	-6.46	-2.5	3.32	63.8
KHYG-1 (IL-2 2.5 ng/mL) [18]	1.48	-0.11	9.42	7.71	81.3
NK-92 (IL-2 2.5 ng/mL) [26]	-10.9	-15.5	4.4	-6.37	58.2
NK-YS (IL-2 2.5 ng/mL) [15]	0.24	1.58	11.9	64.8	103
NKL (IL-2 2.5 ng/mL) [23]	-16	-12.1	14.8	83.8	102
SNK-6 (IL-2 2.5 ng/mL) [17]	-3.12	4.06	1.93	0.27	41.9
YT (IL-2 2.5 ng/mL) [20]	0.23	1.11	4.51	22.4	99.1
[16]	-1.6	-6.76	-4.51	2.54	45.6
[21]	-3.15	-14.1	-7.04	-6.72	27.1
[24]	-6.89	-6.08	-9.88	-12.8	4.72
[27]	-7.16	-1.31	1.87	-2.86	29.2
[28]	-5.69	-0.26	-0.77	-4.84	28.3
